PubChem BioAssay AID2060604 (Molecular Pharmacology Branch, DTP, NCI, 2025)
Several values for one entry are separate records, joined by “and”; a condition that tells them apart may be missing. Equal entries are not always repeated.

Test system: 379773-124-R-J2-PDC complex spheroids, viability % test/control
Experiment: Anticancer human tumor 379773-124-R-J2-PDC patient-derived endometrial carcinoma cell line growth inhibition [CLK]
Conditions: for viability, T/C: stronger effect = lower value; active = viability on the fitted dose curve at most 10% of control; inactive = the rest
Summary of the method: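 Patient-derived tumor cells grown as complex spheroids with HUVEC endothelial cells and mesenchymal stem cells, treated with drug combinations. Concentrations descend in half-log steps from near clinical Cmax, or from 10 microM if Cmax unknown.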

[1] = curve of first compound, second compound 0.0316 µM
[2] = curve of first compound, second compound 0.1 µM
[3] = curve of first compound, second compound 0.316 µM
[4] = curve of first compound, second compound 1 µM
[5] = curve of first compound, second compound 3.16 µM
[6] = curve of first compound, second compound 10 µM
[7] = second compound 0.0316 µM, first compound 0.0316 µM
[8] = second compound 0.0316 µM, first compound 0.1 µM
[9] = second compound 0.0316 µM, first compound 0.316 µM
[10] = second compound 0.0316 µM, first compound 1 µM
[11] = second compound 0.0316 µM, first compound 3.16 µM
[12] = second compound 0.0316 µM, first compound 10 µM
[13] = second compound 0.1 µM, first compound 0.0316 µM
[14] = second compound 0.1 µM, first compound 0.1 µM
[15] = second compound 0.1 µM, first compound 0.316 µM
[16] = second compound 0.1 µM, first compound 1 µM
[17] = second compound 0.1 µM, first compound 3.16 µM
[18] = second compound 0.1 µM, first compound 10 µM
[19] = second compound 0.316 µM, first compound 0.0316 µM
[20] = second compound 0.316 µM, first compound 0.1 µM
[21] = second compound 0.316 µM, first compound 0.316 µM
[22] = second compound 0.316 µM, first compound 1 µM
[23] = second compound 0.316 µM, first compound 3.16 µM
[24] = second compound 0.316 µM, first compound 10 µM
[25] = second compound 1 µM, first compound 0.0316 µM
[26] = second compound 1 µM, first compound 0.1 µM
[27] = second compound 1 µM, first compound 0.316 µM
[28] = second compound 1 µM, first compound 1 µM
[29] = second compound 1 µM, first compound 3.16 µM
[30] = second compound 1 µM, first compound 10 µM
[31] = second compound 3.16 µM, first compound 0.0316 µM
[32] = second compound 3.16 µM, first compound 0.1 µM
[33] = second compound 3.16 µM, first compound 0.316 µM
[34] = second compound 3.16 µM, first compound 1 µM
[35] = second compound 3.16 µM, first compound 3.16 µM
[36] = second compound 3.16 µM, first compound 10 µM
[37] = second compound 10 µM, first compound 0.0316 µM
[38] = second compound 10 µM, first compound 0.1 µM
[39] = second compound 10 µM, first compound 0.316 µM
[40] = second compound 10 µM, first compound 1 µM
[41] = second compound 10 µM, first compound 3.16 µM
[42] = second compound 10 µM, first compound 10 µM
[43] = second compound 0.0316 µM, first compound 0.00316 µM
[44] = second compound 0.0316 µM, first compound 0.01 µM
[45] = second compound 0.1 µM, first compound 0.00316 µM
[46] = second compound 0.1 µM, first compound 0.01 µM
[47] = second compound 0.316 µM, first compound 0.00316 µM
[48] = second compound 0.316 µM, first compound 0.01 µM
[49] = second compound 1 µM, first compound 0.00316 µM
[50] = second compound 1 µM, first compound 0.01 µM
[51] = second compound 3.16 µM, first compound 0.00316 µM
[52] = second compound 3.16 µM, first compound 0.01 µM
[53] = second compound 10 µM, first compound 0.00316 µM
[54] = second compound 10 µM, first compound 0.01 µM
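Also: compound exposure lasted seven days before the viability readout.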
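For viability, T/C in this document: 100% = DMSO vehicle control wells.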

CC(C)CC(NC(=O)C(Cc1ccccc1)NC(=O)c1cnccn1)B(O)O (configuration not stated)
active: viability, T/C (compound 0.00949 µM) 0.16% and 0.15% | viability, T/C (compound 0.03 µM) 0.22% and 0.21% | viability, T/C (compound 0.0949 µM) 0.19% and 0.16% | viability, T/C (compound 0.3 µM) 0.09% and 0.12%
1.85 nM and 1.53 nM: IC50 (curve of compound)
inactive: viability, T/C (compound 0.000949 µM) 83.2% and 77.4% | viability, T/C (compound 0.003 µM) 25.8% and 11.7%

COc1cccc2c1C(=O)c1c(O)c3c(c(O)c1C2=O)CC(O)(C(=O)CO)CC3OC1CC(N)C(O)C(C)O1 (configuration not stated)
active: viability, T/C (compound 0.316 µM) 7.51% and 5.56% | viability, T/C (compound 1 µM) 3.51% and 3.77% | viability, T/C (compound 3.16 µM) 1.61% and 0.59% | viability, T/C (compound 10 µM) 0.12% and 0.15%
inactive: viability, T/C (compound 0.0316 µM) 53.6% and 49.6% | viability, T/C (compound 0.1 µM) 9.76% and 9.37%
34.5 nM and < 31.6 nM: IC50 (curve of compound)

Nc1ccn(C2OC(CO)C(O)C2(F)F)c(=O)n1 (configuration not stated) + CN1CCN(c2cc(C(=O)Nc3cc4cc(-c5cnn(C)c5)ccc4cn3)ccn2)CC1
inactive: viability, T/C [7] 10.9% | viability, T/C [13] 10.4%
active: viability, T/C [8] 5.93% | viability, T/C [9] 5% | viability, T/C [10] 6.45% | viability, T/C [11] 6.59% | viability, T/C [12] 3.28% | viability, T/C [14] 5.09% | viability, T/C [15] 4.66% | viability, T/C [16] 5.3% | viability, T/C [17] 4.72% | viability, T/C [18] 1.97% | viability, T/C [19] 7.96% | viability, T/C [20] 4.03% | viability, T/C [21] 2.64% | viability, T/C [22] 2.49% | viability, T/C [23] 1.51% | viability, T/C [24] 0.83% | viability, T/C [25] 0.1% | viability, T/C [26] 0.12% | viability, T/C [27] 0.11% | viability, T/C [28] 0.05% | viability, T/C [29] 1.02% | viability, T/C [30] 0.05% | viability, T/C [31] 0.08% | viability, T/C [32] 0.11% | viability, T/C [33] 0.12% | viability, T/C [34] 0.07% | viability, T/C [35] 0.82% | viability, T/C [36] 0.09% | viability, T/C [37] 0.18% | viability, T/C [38] 1.56% | viability, T/C [39] 0.87% | viability, T/C [40] 1.76% | viability, T/C [41] 0.56% | viability, T/C [42] 0.13%
< 31.6 nM: IC50 [1] | IC50 [2] | IC50 [3] | IC50 [4] | IC50 [5] | IC50 [6]

CCc1c2c(nc3ccc(O)cc13)-c1cc3c(c(=O)n1C2)COC(=O)[C@]3(O)CC + CNC(=O)c1ccc(Nc2nc(OC3CCCC3)c3c(-c4ccc5nc(C)oc5c4)c[nH]c3n2)c(OC)c1
< 3.16 nM: IC50 [1] | IC50 [2] | IC50 [3] | IC50 [4] | IC50 [5] | IC50 [6]
active: viability, T/C [44] 6.83% | viability, T/C [7] 2.79% | viability, T/C [8] 1.86% | viability, T/C [9] 0.94% | viability, T/C [10] 0.4% | viability, T/C [45] 7.91% | viability, T/C [46] 4.87% | viability, T/C [13] 2.4% | viability, T/C [14] 1.19% | viability, T/C [15] 0.65% | viability, T/C [16] 0.35% | viability, T/C [47] 6.52% | viability, T/C [48] 5.08% | viability, T/C [19] 2.12% | viability, T/C [20] 1.42% | viability, T/C [21] 0.6% | viability, T/C [22] 0.25% | viability, T/C [49] 5.11% | viability, T/C [50] 4.25% | viability, T/C [25] 2.43% | viability, T/C [26] 0.96% | viability, T/C [27] 0.45% | viability, T/C [28] 0.37% | viability, T/C [51] 5.35% | viability, T/C [52] 4.96% | viability, T/C [31] 1.98% | viability, T/C [32] 1.08% | viability, T/C [33] 0.6% | viability, T/C [34] 0.2% | viability, T/C [53] 5.38% | viability, T/C [54] 4.45% | viability, T/C [37] 2.55% | viability, T/C [38] 1.19% | viability, T/C [39] 0.79% | viability, T/C [40] 0.39%
inactive: viability, T/C [43] 12.8%

CCc1c2c(nc3ccc(O)cc13)-c1cc3c(c(=O)n1C2)COC(=O)[C@]3(O)CC + CN1CCN(c2cc(C(=O)Nc3cc4cc(-c5cnn(C)c5)ccc4cn3)ccn2)CC1
active: viability, T/C [44] 8.12% | viability, T/C [7] 3.67% | viability, T/C [8] 2.7% | viability, T/C [9] 0.99% | viability, T/C [10] 0.98% | viability, T/C [46] 7.87% | viability, T/C [13] 5.68% | viability, T/C [14] 1.93% | viability, T/C [15] 1% | viability, T/C [16] 0.47% | viability, T/C [48] 9.07% | viability, T/C [19] 3.15% | viability, T/C [20] 1.65% | viability, T/C [21] 0.34% | viability, T/C [22] 0.08% | viability, T/C [49] 0.11% | viability, T/C [50] 0.18% | viability, T/C [25] 0.1% | viability, T/C [26] 0.34% | viability, T/C [27] 0.05% | viability, T/C [28] 0.05% | viability, T/C [51] 0.07% | viability, T/C [52] 0.08% | viability, T/C [31] 0.13% | viability, T/C [32] 0.73% | viability, T/C [33] 0.09% | viability, T/C [34] 0.08% | viability, T/C [53] 0.45% | viability, T/C [54] 0.11% | viability, T/C [37] 0.2% | viability, T/C [38] 1.89% | viability, T/C [39] 0.75% | viability, T/C [40] 0.18%
inactive: viability, T/C [43] 14.1% | viability, T/C [45] 10.7% | viability, T/C [47] 10.6%
< 3.16 nM: IC50 [1] | IC50 [2] | IC50 [3] | IC50 [4] | IC50 [5] | IC50 [6]

O=C(c1cc(Cc2n[nH]c(=O)c3ccccc23)ccc1F)N1CCN(C(=O)C2CC2)CC1 + CN1CCN(c2cc(C(=O)Nc3cc4cc(-c5cnn(C)c5)ccc4cn3)ccn2)CC1
< 31.6 nM: IC50 [3] | IC50 [4] | IC50 [5] | IC50 [6]
inactive: viability, T/C [7] 101% | viability, T/C [8] 98.7% | viability, T/C [9] 87.9% | viability, T/C [10] 89.9% | viability, T/C [11] 78.6% | viability, T/C [12] 51.7% | viability, T/C [13] 73.5% | viability, T/C [14] 76.6% | viability, T/C [15] 87.8% | viability, T/C [16] 94.2% | viability, T/C [17] 76.6% | viability, T/C [18] 36.9% | viability, T/C [19] 16.7% | viability, T/C [20] 22.3% | viability, T/C [21] 15.1% | viability, T/C [22] 23.2% | viability, T/C [23] 16.8% | viability, T/C [24] 12.3%
> 10000 nM: IC50 [1]
6850 nM: IC50 [2]
active: viability, T/C [25] 0.11% | viability, T/C [26] 1.49% | viability, T/C [27] 0.2% | viability, T/C [28] 1.01% | viability, T/C [29] 0.08% | viability, T/C [30] 1.87% | viability, T/C [31] 1.24% | viability, T/C [32] 0.11% | viability, T/C [33] 1.32% | viability, T/C [34] 0.09% | viability, T/C [35] 0.1% | viability, T/C [36] 0.09% | viability, T/C [37] 0.19% | viability, T/C [38] 0.11% | viability, T/C [39] 0.46% | viability, T/C [40] 0.66% | viability, T/C [41] 0.18% | viability, T/C [42] 0.19%
